Results reported in patent publication US5304474A, “Hydrophobic peptide esters and amides” (Board of Regents, The University of Texas System, priority 1991, dated 1994).
Entries after “also recorded” stand apart in the source; their conditions may differ.

Columns and labels:
[1] = tested on: mononuclear phagocytes (MP); assay: Loss of MP from PBM, anti-MP (63D3) staining; assay type: cell-based, human; conditions: 15 minute exposure, 2 hours at 37° C. (FIG. 6)
Method: (§1) In the experiments depicted in FIG. 6, freshly isolated PBM (2.5×10^6 /ml PBS and 1g/l glucose) were incubated at room temperature with varying concentrations of Leu-Leu-OMe. After a 15 minute exposure to this compound, the cells were washed, incubated for 2 hours at 37° C. and then assessed for the percentage of remaining viable cells which were stained by anti-MP or anti-NK monoclonal antibodies. Preincubation with greater than 25-50 micromola Leu-Leu-OMe led to loss of NK cells.
(§2) Anti-MP monoclonal antibodies (63D3) and anti-NK monoclonal antibodies (leu 11b) were obtained from Becton Dickinson Monoclonal Center, lnc., Mountain View, Cal. The antibody staining and Fluorescence Activated Cell Sorter (FACS) procedure was that of Rosenberg et al. (1981) (J. Immunol. V 126, p 1473). Data are expressed as percent of antibody staining in control cells (mean±SEM, n=4).

human erythrocytes (RBC) = assay: 51Cr release from RBC incubated with peptide ester alone; assay type: cell-based; conditions: for ^51 Cr Release from RBC: Nil 410 + 12
Method: The following experiments were carried out to determine whether DPPI could generate a lytic product from Leu-Leu-OMe. In the experiment detailed in FIG. 12, ^51 Cr-labeled human erythrocytes (RBC) were incubated with varying concentrations of Leu-Leu-OMe alone or in the presence of purified bovine DPPI.

NK cells = assay: Loss of NK cells from PBM, anti-NK (leu 11b) staining; assay type: cell-based, human; conditions: 15 minute exposure, 2 hours at 37° C. (FIG. 6)
Method: as §1, §2

[2] = tested on: CD16(+), CD4(+), CD8(+) lymphocytes; assay: Lymphocyte subsets of PBL stained with alpha-CD16, alpha-CD4, alpha-CD8; assay type: cell-based, human
From the text: Thus, as previously reported (see prior Examples and J. Immunol. 1986; 136:1038-1048), exposure of human PBL to 250 micro-M Leu-Leu-OMe results in loss of all CD16(+) NK cells, and the majority of CD8(+) T cells and thereby results in reciprocal enrichment of the CD4(+) T cell subset which is largely Leu-Leu-OMe resistant (see Table 13).

[3] = tested on: B6 spleen cells (NK, allospecific cytotoxic T cells); conditions: 250 micro-M (ref. 12); cited from earlier work
[4] = tested on: MP-enriched adherent cells (AC); assay: 51Cr release toxicity assay; assay type: cell-based, human
Method: (§3) In some experiments, toxicity of Leu-Leu-OMe for a variety of cell populations was assessed by ^51 Cr release In assays where cells obtained from suspension culture were to be used, cells were labeled with Na2^51 CrO4 (ICN, Plainview, N.Y.) for 60-90 minutes at 37° C. and then washed three times. Cells were then suspended in PBS (2.5×10^6 /ml) and incubated in microtiter plates, 50 microL/well with indicated concentrations of Leu-Leu-OMe for 15 minutes at room temperature. […] Following ^51 Cr labeling, wells were thoroughly washed and varying concentrations of Leu-Leu-OMe added in 50 microL PBS and the plates incubated for 15 minutes at room temperature.
(§4) Following such initial serum-free incubations, 200 microL/well of medium RPMI containing 10% FBS were added and the plates incubated for another 4 hours prior to removal of 100 microliters of supernatant. Radioactivity in the supernatant was measured in an auto-gamma scintillation spectrometer (Packard Instrument Co., Downers Grove, Ill.). The percent specific release was calculated from the formula: [formula] in which maximal release refers to cpm obtained in wells containing 50% lysing agent (American Scientific Products, McGraw Park, Ill.) and spontaneous release refers to cpm released by cells incubated in control medium in the absence of Leu-Leu-OMe or the lysing agent.
(§5) In developing the data expressed in FIG. 7, cells (2.5×10^6 /ml) were exposed to the indicated concentrations of Leu-Leu-OMe for 15 minutes at room temperature, then specific ^51 Cr release during the next four hours was assessed.

T4 enriched T cells = assay: 51Cr release toxicity assay; assay type: cell-based, human
Method: as §3, §4, §5

T8-enriched population = assay: 51Cr release toxicity assay; assay type: cell-based, human
Method: as §3, §4, §5

[5] = tested on: nylon wool non-adherent lymphocytes (NAC); assay: 51Cr release toxicity assay; assay type: cell-based, human; conditions: 25 to 50 micromolar
Method: as §3
as §4, with “agent. Only experiments in which spontaneous release was […] were used for subsequent data interpretation.” for “agent.”
as §5, with “assessed. Data for the EBV transformed lines JM.6, SDL-G2, D8-219, and SM.4, respectively, are shown in order from top to bottom.” for “assessed.”

PBM = assay: 51Cr release toxicity assay; assay type: cell-based, human; conditions: 15 minutes exposure, 4 hour release (FIG. 7)
Method: as §3
as §4, with “agent. Only experiments in which spontaneous release was […] were used for subsequent data interpretation.” for “agent.”
as §5, with “assessed. Data for the EBV transformed lines JM.6, SDL-G2, D8-219, and SM.4, respectively, are shown in order from top to bottom.” for “assessed.”

[6] = tested on: [^3 H]Leu-Leu-OMe uptake by PBL (facilitated transport); assay: Competitive inhibition of [3H]Leu-Leu-OMe uptake; assay type: cell-based, human
Method: Human peripheral blood lymphocytes (PBL) were incubated in the presence of [^3 H]labeled Leu-Leu-OMe at 22° C. for varying lengths of time. The incubation mixture was then centrifuged through silicone oil to separate the cells from any unbound or non-internalized [^3 HLeu-Leu-OMe. […] At 37° C., levels of [^3 H]Leu-Leu-OMe accumulation by PBL were increased above those seen at 22° C. (see Table 4).

COC(=O)[C@H](CC(C)C)NC(=O)[C@@H](N)CC(C)C [Leu-Leu-OMe, L-leucyl-L-leucine methyl ester]
loss of MP from PBM, in words [1]: did not deplete MP from PBM; also recorded: higher concentrations of Leu-Leu-OMe caused loss of MP | ^51 Cr Release from RBC (human erythrocytes (RBC); 100 micro-M): 400 + 27 | ^51 Cr Release from RBC (human erythrocytes (RBC); 500 micro-M): 482 + 57 | ^51 Cr Release from RBC (human erythrocytes (RBC); 2500 micro-M): 482 + 121 | damage to RBC by compound alone, in words (human erythrocytes (RBC); no DPPI): results in no damage to RBC | preincubation concentration leading to loss of NK cells (NK cells): 25 to 50 µM | Cells stained with alpha-CD16 ([2]; single agent (Leu-Leu-OMe 250 micro-M or Gly-Phe-CHN2 10^-6 M), Nil 8.1): < 0.1 | Cells stained with alpha-CD8 ([2]; single agent, Nil 18.8): 7.0 | Cells stained with alpha-CD4 ([2]; single agent, Nil 60.3): 87.2 | allocytotoxicity [3]: near total ablation of allocytotoxicity | 51Cr release ([4]; 25-50 micromolar): minimal ^51 Cr release | Leu--Leu--OMe Sensitivity (LD50) ([4]; M--phi): 75 micro-M | 51Cr release (T4 enriched T cells; 1000 micromolar): caused minimal ^51 Cr release | Leu--Leu--OMe Sensitivity (LD50) (T4 enriched T cells; T4 Cells): > 500 micro-M | 51Cr release (T8-enriched population; N-SRBC positive cells depleted of OKT4 positive cells): produced high levels of ^51 Cr release | Leu--Leu--OMe Sensitivity (LD50) (T8-enriched population; T-8 Cells): 250 micro-M | 51Cr release [5]: small but significant ^51 Cr release | concentration for maximal achievable 51Cr release (PBM): greater than 100 micromolar | concentration giving detectable 51Cr release (PBM): 25 to 50 µM | competitive inhibition of [3H]Leu-Leu-OMe uptake, in words [6]: competitively inhibited | inhibition at 250 µM ([6]; Homo sapiens, unlabeled compound 250 microM, [3H]Leu-Leu-OMe 10 microM (Table 5)): 72%
